Each molecule was assayed on HCV replicon (assay: Cell-Based HCV Replicon Assay). Settings: Hepatitis C virus, 72 h; replicon cells, replicon RNA level by real time PCR (Taqman) on day 3; EC90 = concentration to achieve ΔCT=3.2 over baseline; read-out: Biological activity (EC90, HCV replicon assay).
Experimental: To measure cell-based anti-HCV activity of selected compounds of the present invention, replicon cells were seeded at 5000 cells/well in 96-well collagen I-coated Nunc plates in the presence of the test compound. Various concentrations of test compound, typically in 10 serial 2-fold dilutions, were added to the assay mixture, with the starting concentration ranging from 250 µM to 1 μM. The final concentration of DMSO was 0.5%, fetal bovine serum was 5%, in the assay media. Cells were harvested on day 3 by the addition of 1× cell lysis buffer (Ambion cat #8721). The replicon RNA level was measured using real time PCR (Taqman assay). The amplicon was located in 5B. The PCR primers were: 5B.2F, ATGGACAGGCGCCCTGA (SEQ. ID NO. 1); 5B.2R, […] (SEQ. ID NO. 2); the probe sequence was FAM-labeled CACGCCATGCGCTGCGG (SEQ. ID NO. 3). GAPDH RNA was used as endogenous control and was amplified in the same reaction as NS5B (multiplex PCR) using primers and VIC-labeled probe recommended by the manufacturer (PE Applied Biosystem). The real-time RT-PCR reactions were run on ABI PRISM 7900HT Sequence Detection System using the following program: 48° C. for 30 min, 95° C. for 10 min, 40 cycles of 95° C. for 15 sec, 60° C. for 1 min. The ΔCT values (CT-CT5BCTGAPDH) were plotted against the concentration of test compound and fitted to the sigmoid dose-response model using XLfit4 (MDL). EC50 was defined as the concentration of inhibitor necessary to achieve ΔCT=1 over the projected baseline; EC90 the concentration necessary to achieve ΔCT=3.2 over the baseline. Alternatively, to quantitate the absolute amount of replicon RNA, a standard curve was established by including serially diluted T7 transcripts of replicon RNA in the Taqman assay. All Taqman reagents were from PE Applied Biosystems. Such an assay procedure was described in detail in e.g. Malcolm et at, Antimicrobial Agents and Chemotherapy 50: 1013-1020 (2006).
HCV replicon assay data was calculated for selected compounds of the present invention using this method and is provided in the table below.

`COC(=O)N[C@H](C(=O)N1CCC[C@H]1c1ncc(-c2ccc(-c3ccc4c(ccc5nc([C@@H]6CCCN6C(=O)[C@@H](NC(=O)OC)C(C)C)[nH]c54)c3)s2)[nH]1)C(C)C` [Compound 1] and `COC(=O)N[C@H](C(=O)N1CCC[C@H]1c1ncc(-c2cc(C)c(-c3ccc4c(ccc5nc([C@@H]6CCCN6C(=O)[C@@H](NC(=O)OC)C(C)C)[nH]c54)c3)s2)[nH]1)C(C)C` [Compound 2] cannot be ordered by EC90: less than 1 nM for the first, less than 1 nM for the second.

`COC(=O)N[C@H](C(=O)N1CCC[C@H]1c1nc2ccc(-c3ccc4c(ccc5nc([C@@H]6CCCN6C(=O)[C@@H](NC(=O)OC)C(C)C)[nH]c54)c3)cc2[nH]1)C(C)C` [Compound 3] and `COC(=O)N[C@H](C(=O)N1CCCC[C@H]1c1nc2ccc(-c3ccc4c(ccc5nc([C@@H]6CCCN6C(=O)[C@@H](NC(=O)OC)C(C)C)[nH]c54)c3)cc2[nH]1)C(C)C` [Compound 11] cannot be ordered by EC90: less than 1 nM for the first, less than 1 nM for the second.

First: CC(=O)N1CCC[C@H]1c1nc2ccc(-c3ccc4c(ccc5nc([C@@H]6CCCN6C(=O)OC(C)(C)C)[nH]c54)c3)cc2[nH]1 [Compound 4]
Second: CC(C)(C)OC(=O)N1CCCC[C@H]1c1nc2ccc(-c3ccc4c(ccc5nc([C@@H]6CCCN6C(=O)OC(C)(C)C)[nH]c54)c3)cc2[nH]1 [Compound 8]
The EC90 of the first is higher: no less than 1000 nM for the first, 1 to 999 nM for the second.

First: COC(=O)N[C@H](C(=O)N1CCC[C@H]1c1nc2ccc3cc(-c4ccc5nc([C@@H]6CCCN6C(C)=O)[nH]c5c4)ccc3c2[nH]1)C(C)C [Compound 5]
Second: COC(=O)N[C@H](C(=O)N1CCC[C@H]1c1nc2ccc(-c3ccc4c(ccc5nc([C@@H]6CCCN6)[nH]c54)c3)cc2[nH]1)C(C)C [Compound 17]
The EC90 of the first is lower: less than 1 nM for the first, 1 to 999 nM for the second.

`CC(=O)N1CCC[C@H]1c1nc2ccc(-c3ccc4c(ccc5nc([C@@H]6CCCN6)[nH]c54)c3)cc2[nH]1` [Compound 6] and `COC(=O)N[C@H](C(=O)N1CCCC[C@H]1c1nc2ccc(-c3ccc4c(ccc5nc([C@@H]6CCCN6)[nH]c54)c3)cc2[nH]1)C(C)C` [Compound 10] fall in the same range of EC90: 1 to 999 nM for the first, 1 to 999 nM for the second.

`COC(=O)N[C@H](C(=O)N1CCC[C@H]1c1nc2cc(F)c(-c3ccc4c(ccc5nc([C@@H]6CCCN6C(=O)[C@@H](NC(=O)OC)C(C)C)[nH]c54)c3)cc2[nH]1)C(C)C` [Compound 7] and `COC(=O)N[C@H](C(=O)N1CC(F)(F)C[C@H]1c1nc2ccc(-c3ccc4c(ccc5nc([C@@H]6CCCN6C(=O)[C@@H](NC(=O)OC)C(C)C)[nH]c54)c3)cc2[nH]1)C(C)C` [Compound 12] cannot be ordered by EC90: less than 1 nM for the first, less than 1 nM for the second.

First: CC(C)(C)OC(=O)N1CC(F)(F)C[C@H]1c1nc2ccc(-c3ccc4c(ccc5nc([C@@H]6CCCN6C(=O)OC(C)(C)C)[nH]c54)c3)cc2[nH]1 [Compound 9]
Second: CC(C)[C@H](NC(=O)OC(C)(C)C)C(=O)N1CC(F)(F)C[C@H]1c1nc2ccc(-c3ccc4c(ccc5nc([C@@H]6CCCN6C(=O)[C@@H](NC(=O)OC(C)(C)C)C(C)C)[nH]c54)c3)cc2[nH]1 [Compound 13]
The EC90 of the first is higher: 1 to 999 nM for the first, less than 1 nM for the second.

Compared with `CC(C)[C@H](N)C(=O)N1CC(F)(F)C[C@H]1c1nc2ccc(-c3ccc4c(ccc5nc([C@@H]6CCCN6C(=O)[C@@H](N)C(C)C)[nH]c54)c3)cc2[nH]1` [Compound 14], `COC(=O)N[C@H](C(=O)N1CCC[C@H]1c1nc2ccc(-c3sc4ccc(-c5ccc6c(ccc7nc([C@@H]8CCCN8C(=O)[C@@H](NC(=O)OC)C(C)C)[nH]c76)c5)cc4c3C)cc2[nH]1)C(C)C` [Compound 16] is lower in EC90: 1 to 999 nM for the first, less than 1 nM for the second.

`Cc1cc(-c2cnc([C@@H]3CCCN3C(=O)OC(C)(C)C)[nH]2)sc1-c1ccc2c(ccc3nc([C@@H]4CCCN4C(=O)OC(C)(C)C)[nH]c32)c1` [Compound 15] showed an EC90 of 1 to 999 nM.
